Measured values from US11071720B2, “Cancer therapy” (UCL Business Ltd, priority 2016, dated 2021).

Tests used:
[1] = test system: H3K4me3; experiment: Western blot analysis of H3K4me3 in MLL rearranged cell lines; format: cell-based, human; conditions: various MLL rearranged cell lines, 16 hrs in the presence of copper
[2] = test system: MLL fusion proteins; experiment: Western blot, proteolysis of MLL fusion proteins (effect of copper; primary patient sample); format: cell-based, human
[3] = test system: MLL rearranged cells; experiment: Methylcellulose colony formation assay; format: cell-based, human; conditions: 300 nM disulfiram; MLL rearranged cells vs other leukemic cell lines and CD34+ cord blood
Protocol: FIGS. 6A and 6B show, as explained in Example 1: in FIG. 6A, relative CFU corresponding to colony formation in MLL rearranged cells, other leukemic cell lines and CD34+ cord blood, in a methylcellulose colony formation assay after treatment of the cells with 300 nM disulfiram (equal numbers of cells were plated and normalised CFU frequency is shown, with error bars representing standard deviation); and, in FIG. 6B, the corresponding treated and control plates themselves.

[4] = test system: HOXA9/HOXA10 and MEIS1; experiment: RT-qPCR analysis of MLL target gene expression in SHI-I cells; format: cell-based, human; conditions: 16 hrs of treatment
Protocol: (§1) SHI-I (MLL-AF6), THP-I (MLL-AF9) and MV4-11 (MLL-AF4) cell lines were treated with 300 nM of Disulfiram (Aldrich) or concentrations indicated and 1 μM of Copper chloride (Acros Organics) unless indicated otherwise for 16 hours.

[5] = target: T1, MLL-AF6 (Homo sapiens, UniProt P55196+Q03164); experiment: Western blot analysis of MLL-fusion protein proteolysis in MLL-AF6 positive cell line SHI-I; format: cell-based; conditions: SHI-I cells
T1 construct: AF6 (AFDN, P55196) portion as fusion partner; host or cells: SHI-I (SHI-1) human leukaemic cell line
T1 sequence (Q03164 1146-1214 limits assumed, one chain of several): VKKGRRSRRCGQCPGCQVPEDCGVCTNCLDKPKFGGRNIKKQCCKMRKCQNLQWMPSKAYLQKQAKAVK
Protocol: (§2) Human leukaemic cell lines (DSMZ) were cultured in Roswell Park Memorial Institute (RPMI) medium (Invitrogen), supplemented with 10% heat-inactivated FCS, 100 U/ml Penicillin (Invitrogen), 100 μg/ml Streptomycin (Invitrogen) and 2 mM L-glutamine (Invitrogen) (complete RPMI), or in Iscove's Modified Dulbecco's Medium (IMDM) (Invitrogen) supplemented with 20% heat-inactivated FCS, 100 U/ml Penicillin (Invitrogen), 100 μg/ml Streptomycin (Invitrogen) and 2 mM L-glutamine (Invitrogen)(complete IMDM).
as §1
(§3) Cells were lysed in Sample Reducing Buffer (200 mM DTT, 2% sodium dodecyl sulphate (SDS), 10% v/v Glycerol, 0.02% v/v Bromophenol Blue, 125 mM Tris HCl pH 6.8). The lysates were incubated for 5 minutes at 100° C., vortexed for 10 seconds and centrifuged at 13,200 rpm for 10 minutes at 4° C. The total cell lysate was then collected and stored at −20° C. or loaded immediately onto a polyacrylamide gel.
The whole cell lysate was electrophoresed in 7% Bis-Tris polyacrylamide gel and transferred to a odyssey nitrocellulose membrane (LI-COR).
After blocked for 1 hr for non-specific binding in PBS-T with 5% of non-fat milk, blots were incubated with primary antibodies (MLL, mouse monoclonal 1:2000, Millipore; Vinculin, rabbit monoclonal 1:10000, Abcam) overnight at 4° C., followed by secondary IRDye conjugated antibodies (mouse IEDye800CW 1:10000; rabbit IRDye680RD 1:10000, LI-COR) at room temperature.
Blots were visualized using the Odyssey CLx.
SHI-I (MLL-AF6), and THP-I (MLL-AF9) cell lines were treated with 300 nM of Diethyldithiocarbamate (Aldrich) and 1 μM of Copper chloride (Acros Organics) unless indicated otherwise for 16 hours.
SHI-I (MLL-AF6) cell line was treated with 100 nM or 75 nm of Disulfiram (Aldrich) and 100 nM of Auranofin or 10 μM of Curcumin supplemented with 1 μM of Copper chloride (Acros Organics) for 16 hours.

[6] = test system: MLL-AF9 and MLL-AF4 profiles; experiment: Gene Set Enrichment Analysis of treated SHI-I cells; format: cell-based, human; conditions: 16 hrs in the presence of copper
Protocol: as §1

[7] = target: T2, MLL-AF9 (Homo sapiens, UniProt P42568+Q03164); experiment: Western blot analysis of MLL-fusion protein proteolysis in MLL-AF9 cells (V6MA.3, THP-1); format: cell-based
T2 construct: AF9 (MLLT3, P42568) portion as fusion partner; host or cells: THP-1 (endogenous fusion); V6MA.3 (MLL-AF9 immortalised cord blood)
T2 sequence (Q03164 1147-1203 limits assumed, one chain of several): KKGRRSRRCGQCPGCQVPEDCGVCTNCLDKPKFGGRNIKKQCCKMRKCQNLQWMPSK
Protocol: as §2, §1, §3
The whole cell lysate was electrophoresed in 7% Bis-Tris polyacrylamide gel and transferred to a odyssey nitrocellulose membrane (LI-COR). […]

[8] = 16 hrs treatment in the presence of copper

In the case of `CCN(CC)C(=S)SSC(=S)N(CC)CC` [disulfiram], the “H3K4me3 level (Western blot)” value [1] was “showing a decrease in H3K4me3”, the “proteolysis of the MLL-fusion protein (Western blot)” value (“proteolysis” below) [2] was “showing proteolysis of the MLL-fusion protein in a primary patient sample” and the “relative CFU corresponding to colony formation” value [3] was “substantially higher effect than in other (non-MLL) leukemic cell lines and CD34+ cord blood”. The “MLL target gene expression level of HOXA9/HOXA10 and MEIS1, normalised to 18S (RT-qPCR)” value [4] was “efficient down-regulation of the target genes”, the “proteolysis” value [5, 8] was “showing proteolysis of the MLL-fusion protein” and the “proteolysis” value ([5]; 16 hrs, in the presence of copper, with or without thioredoxin reductase inhibitors Auranofin and Curcumin) was “showing proteolysis of the MLL-fusion protein”. For the same compound, the “Gene Set Enrichment Analysis versus published MLL-AF9 and MLL-AF4 profiles” value [6] was “negative enrichment to both published MLL-AF9 and MLL-AF4 profiles” and the “proteolysis” value ([7]; MLL-AF9 immortalised cord blood V6MA.3, 16 hrs treatment in the presence of copper) was “showing proteolysis of the MLL-fusion protein”.

With `CCN(CC)C(=S)S` [diethyldithiocarbamate, Diethyldithiocarbamic acid] the “proteolysis” value [5, 8] was “showing proteolysis of the MLL-fusion protein” and the “proteolysis” value ([7]; MLL-AF9 positive cell line THP-1, 16 hrs treatment in the presence of copper) was “showing proteolysis of the MLL-fusion protein”.
